Where two headings read alike, the source gives them in different places.
Tests used:
Male CD rats = test: Rat MEST model (seizure threshold, CC50); type: in vivo
Experimental: This work was conducted in compliance with the Home Office Guidance on the operation of the Animals (Scientific Procedures) Act 1986 and GlaxoSmithKline ethical standards. Male CD rats (100-145 g) were supplied by Charles River, UK. Animals were group housed (6 animal per cage) with free access to food (Standard rodent chow; Harlan, UK) and water under a 12 h light/dark cycle (lights on at 0700 h). A period of at least one week between arrival at GSK and the study was allowed in all cases.
Animals were administered a test compound at the appropriate dose, route and pre-treatment time and returned to their home cage. Testing occurred in a separate room from that used for housing. Testing involved determining the threshold for tonic hindlimb extensor seizures using a Hugo Sachs Electronik stimulator which delivers a constant current of 0.3 second duration, 50 Hz, sinewave form, fully adjustable between 1 and 300 mA. Stimuli were delivered via corneal electrodes (Stean T O, Atkins A R, Heidbreder C A, Quinn L P, Trail B K, Upton N. (2005) Br J. Pharmacol. 144(5):628-35). Seizure threshold was determined using the ‘up and down’ method of Kimball et al. (1957)(Kimball A W, Burnett W T Jr, Doherty D G. (1957) Radiat Res. 7(1):1-12). The first animal tested in each group was stimulated with a current that might be expected to be close to the threshold for induction of a seizure. If a tonic seizure was not induced, then next animal in the group received a stimulus 5 mA higher. If a tonic seizure was induced, then the next animal received a stimulus 5 mA lower. This is repeated for all animals within the control (vehicle) group. In the case of groups treated with a sodium channel blocker steps of 10 to 30 mA were used.
(§1) All doses were calculated as base. ENa9 and ENa13 were dosed via the subcutaneous (s.c.) route at 1 ml/kg in a 2% v/v DMSO/saline vehicle 30 minutes prior to test. ENa7 and ENa14 were dosed orally (p.o.) in a 1% w/v methylcellulose/water vehicle at 2 ml/kg, 60 minutes before test. Compound ENK6 was dosed with via the intraperitoneal (i.p.) route 60 minutes before the test or via the s.c. route 15 minutes before test. In both cases ENK6 was dissolved in saline.
Induction of seizure is measured as an all-or-nothing effect scored as either present (+) or absent (0) for each animal. The data for each treatment group were recorded as the number of +'s and 0's at each current level employed and this information was then used to calculate the CC50 value (current required for 50% of animals to show seizure behaviour)+standard error of the mean according to the method of Kimball et al. (1957). Drug effects were calculated as the % change in CC50. Significant differences between drug-treated animals and appropriate vehicle treated groups were assessed according to the methods of Litchfield and Wilcoxon (1949). The statistical significance of differences between sodium channel blocker alone or in combination with ENK6 was assessed using a Student's t test.

[1] = Blood and brain concentrations in satellite animals of the MEST study; type: in vivo, rat; settings: satellite rats; for concentration at 60 min: rat, po, n = 1
Experimental: Satellite animals (n=3/group) received the same drugs or combinations of drugs as the test groups, and were culled at the appropriate time after dosing. Blood and brain samples were taken for analysis of the drug concentrations in these compartments.
as §1

[2] = ENK6 10 mg/kg s.c. + ENa7 1 mg/kg p.o., n = 2-3
[3] = ENK6 10 mg/kg s.c. + ENa7 3 mg/kg p.o., n = 2-3
[4] = ENK6 30 mg/kg s.c. + ENa7 1 mg/kg p.o., n = 2
[5] = ENK6 30 mg/kg s.c. + ENa7 3 mg/kg p.o., n = 2

## Nc1nnc(-c2cccc(Cl)c2Cl)c(N)n1 [ENa7, 3,5-diamino-6-(2,3-dichlorophenyl)-1,2,4-triazine, reference compound]
Male CD rats; sodium channel blocker 1 mg/kg p.o. in the presence of ENK6 10 mg/kg s.c. (first experiment)
  increase in CC50 (mA): 61%
Male CD rats; sodium channel blocker 1 mg/kg p.o. in the presence of ENK6 30 mg/kg s.c.
  increase in CC50 (mA): 145%
Male CD rats; sodium channel blocker 3 mg/kg p.o. in the presence of ENK6 30 mg/kg s.c. (second experiment)
  increase in CC50 (mA): 233%
Male CD rats; sodium channel blocker alone, 1 mg/kg p.o., 60 minutes before the test
  effect on seizure threshold: little or no increase in seizure threshold
Male CD rats; sodium channel blocker alone, 3 mg/kg p.o., 60 minutes before the test, two independent experiments
  increase in seizure threshold: 128-205%
[1]; blood, 1 mg/kg, ENK6 veh + ENa7 1 mg/kg p.o. (Table 3), read-out: Blood concentration
  concentration at 60 min: 311 ng/mL
[1]; blood, 1 mg/kg, ENK6 veh + ENa7 1 mg/kg p.o. (Table 4), read-out: Blood concentration
  concentration at 60 min: 352 ng/mL
[1]; blood, 3 mg/kg, ENK6 veh + ENa7 3 mg/kg p.o. (Table 3), read-out: Blood concentration
  concentration at 60 min: 1180 ng/mL
[1]; blood, 3 mg/kg, ENK6 veh + ENa7 3 mg/kg p.o. (Table 4), read-out: Blood concentration
  concentration at 60 min: 1350 ng/mL
[1]; brain, 1 mg/kg, ENK6 veh + ENa7 1 mg/kg p.o. (Table 3), read-out: Brain concentration
  concentration at 60 min: 517 ng/g
[1]; brain, 1 mg/kg, ENK6 veh + ENa7 1 mg/kg p.o. (Table 4), read-out: Brain concentration
  concentration at 60 min: 588 ng/g
[1]; brain, 3 mg/kg, ENK6 veh + ENa7 3 mg/kg p.o. (Table 3), read-out: Brain concentration
  concentration at 60 min: 2830 ng/g
[1]; brain, 3 mg/kg, ENK6 veh + ENa7 3 mg/kg p.o. (Table 4), read-out: Brain concentration
  concentration at 60 min: 2190 ng/g
[1]; [2]
  Blood concentration: 581 ng/mL
  Brain concentration: 1125 ng/g
[1]; [3]
  Blood concentration: 1603 ng/mL
  Brain concentration: 2855 ng/g
[1]; [4]
  Blood concentration: 461 ng/mL
  Brain concentration: 752 ng/g
[1]; [5]
  Blood concentration: 1404 ng/mL
  Brain concentration: 2096 ng/g

From US20100105688A1, “PHARMACEUTICAL COMPOSITIONS COMPRISING 3,5-DIAMINO-6-(2,3-DICHLOPHENYL)-1,2,4-TRIAZINE OR R(-)-2,4-DIAMINO-5-(2,3-DICHLOROPHENYL)-6-FLUOROMETHYL PYRIMIDINE AND AN NK1” (GLAXO GROUP LIMITED, priority 2007, published 2010)
